From article PMC7306040, “Exploring the abundance of oleate hydratases in the genus Rhodococcus—discovery of novel enzymes with complementary substrate scope” (Applied Microbiology and Biotechnology, 2020)

Legend:
RpOhy (DSM 20415) [1] = target: T1, RpOhy (DSM 20415) (Rhodococcus pyridinivorans, UniProt A0A7T7LF34); experiment: coupled assay with alcohol dehydrogenase ADH010, NADH at […] nm; assay type: biochemical; conditions: apparent cooperative, Hill n 2.45 ± 0.47; 2 mM NAD+, 50 mM PIPES pH 6.5, 10% DMSO; read-out: K0.5
T1 construct: gene INP59_15660; N-terminally His6-tagged, codon-optimised, pBAD/His A, E. coli TOP10; Ni-NTA and SEC; monomer, dimer and larger aggregates
T1 sequence (A0A7T7LF34 1-601): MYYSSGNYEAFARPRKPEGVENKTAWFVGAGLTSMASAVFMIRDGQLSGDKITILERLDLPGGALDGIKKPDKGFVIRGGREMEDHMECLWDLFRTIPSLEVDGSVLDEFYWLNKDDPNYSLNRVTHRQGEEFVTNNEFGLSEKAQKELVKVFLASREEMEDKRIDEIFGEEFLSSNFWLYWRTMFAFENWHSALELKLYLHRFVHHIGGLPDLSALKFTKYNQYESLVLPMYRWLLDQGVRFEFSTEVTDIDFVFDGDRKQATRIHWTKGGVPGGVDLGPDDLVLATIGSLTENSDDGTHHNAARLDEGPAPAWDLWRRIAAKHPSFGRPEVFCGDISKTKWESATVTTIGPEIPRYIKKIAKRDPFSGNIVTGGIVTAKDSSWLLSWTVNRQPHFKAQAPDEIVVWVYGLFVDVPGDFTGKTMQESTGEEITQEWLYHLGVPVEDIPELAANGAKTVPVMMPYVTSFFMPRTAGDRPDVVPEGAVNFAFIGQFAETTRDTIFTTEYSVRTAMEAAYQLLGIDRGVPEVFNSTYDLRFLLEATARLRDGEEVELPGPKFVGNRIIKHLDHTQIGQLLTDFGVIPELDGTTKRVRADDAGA

RpOhy (DSM 20415) [2] = target: T1, RpOhy (DSM 20415); experiment: yellow colour of purified enzyme; oleic acid conversion with […] added FAD; assay type: binding; conditions: 20 mM acetate pH 5, 25 °C, 500 uM oleic acid, 1% DMSO

| Km (RpOhy (DSM 20415) [1]) [µM] | Compound | yellow colour of purified enzyme; oleic acid conversion with 0-100 uM added FAD (RpOhy (DSM 20415) [2]) |
| --- | --- | --- |
| 720 ± 70 | CCCCCCCC/C=C\CCCCCCCC(=O)O [compound 3, Oleic acid] |  |
|  | Cc1cc2nc3c(=O)[nH]c(=O)nc-3n(C[C@H](O)[C@H](O)[C@H](O)COP(=O)(O)OP(=O)(O)OC[C@H]3O[C@@H](n4cnc5c(N)ncnc54)[C@H](O)[C@@H]3O)c2cc1C [FAD] | yellow colour indicating that the FAD cofactor was incorporated in the enzyme |
